Columns and labels:
Type in all cases: cell-based
[1] = tested on: Haemophilus influenzae; assay: MIC, fastidious Gram negative organisms in Mueller-Hinton broth; conditions: Mueller-Hinton broth + hemin and NAD, 24 hours, 37° C., 5×10^4 CFU/well
Protocol: (§1) The following results were obtained on a standard in-vitro test system. The activity is described in terms of the minimum inhibitory concentration (MIC) determined by the agar-dilution technique with an inoculum size of 10^4 CFU/spot. Typically, compounds are active in the range 0.01 to 256 μg/ml.
(§2) Streptococci and enterococci were tested on agar supplemented with 5% defibrinated horse blood, an inoculum of 10^4 CFU/spot and an incubation temperature of 37° C. in an atmosphere of 5% carbon dioxide for 48 hours—blood is required for the growth of some of the test organisms. Fastidious Gram negative organisms were tested in Mueller-Hinton broth, supplemented with hemin and NAD, grown aerobically for 24 hours at 37° C., and with an innoculum of 5×10^4 CFU/well.

[2] = tested on: Moraxella catarrhalis; assay: as above; conditions: Mueller-Hinton broth + hemin and NAD, 24 hours, 37° C., 5×10^4 CFU/well
Protocol: as §1, §2

[3] = tested on: Enterococcus faecium; assay: MIC, agar with 5% defibrinated horse blood, enterococci; conditions: agar + 5% horse blood, 10^4 CFU/spot, 37° C., 5% CO2, 48 hours
Protocol: as §1, §2

[4] = tested on: Streptococcus pneumoniae; assay: MIC, agar with 5% defibrinated horse blood, streptococci; conditions: agar + 5% horse blood, 10^4 CFU/spot, 37° C., 5% CO2, 48 hours
Protocol: as §1, §2

[5] = tested on: Linezolid Resistant Streptococcus pneumoniae; assay: as above; conditions: agar + 5% horse blood, 10^4 CFU/spot, 37° C., 5% CO2, 48 hours
Protocol: as §1, §2

[6] = tested on: Staphylococcus aureus MSQS (methicillin sensitive and quinolone sensitive); assay: MIC, agar dilution, staphylococci; conditions: 10^4 CFU/spot, 37° C., 24 hours
Protocol: as §1
(§3) Staphylococci were tested on agar, using an inoculum of 10^4 CFU/spot and an incubation temperature of 37° C. for 24 hours—standard test conditions for the expression of methicillin resistance.

[7] = tested on: Staphylococcus aureus MRQR (methicillin resistant and quinolone resistant); assay: MIC, agar dilution, staphylococci; conditions: 10^4 CFU/spot, 37° C., 24 hours
Protocol: as §1, §3

## O=C1O[C@@H](Cn2ccnn2)CN1c1ccc(-c2cnc(C3=NOC(CO)C3)nc2)c(F)c1 (mixture of isomers) [Example 1, 3-(3-Fluoro-4-{2-(5RS)-[5-(hydroxymethyl)-4,5-dihydroisoxazol-3-yl]pyrimidin-5-yl}phenyl)-5-(5R)-(1H-1,2,3-triazol-1-ylmethyl)-1,3-oxazolidin-2-one]
[1]
  MIC: 8 µg/mL
[2]
  MIC: 2 µg/mL
[3]
  MIC: 2 µg/mL
[4]
  MIC: 0.25 µg/mL
[5]
  MIC: 4 µg/mL
[6]
  MIC: 2 µg/mL
[7]
  MIC: 2 µg/mL

Reference: patent US20060058314A1, “Oxazolidinone derivatives and their use as antibacterial agents” (AstraZeneca AB, priority 2002, published 2006)
